Data reported in PubChem BioAssay AID651985 (The Scripps Research Institute Molecular Screening Center, 2013).
Calls of active or inactive are those of the source. The rule behind the calls is not given here.

Assays:
LYPLA1 = assay: PubChem AID 651985; conditions: C57 mice dosed, tissue gel ABPP with NHU5 probe, stronger effect = higher value
LYPLA2 = assay: PubChem AID 651985; conditions: C57 mice dosed, tissue gel ABPP with NHU5 probe, stronger effect = higher value

Row | Structure (SMILES) | inhibition (LYPLA1; heart) | inhibition (LYPLA1) | inhibition (LYPLA1; kidney) | inhibition (LYPLA1; liver) | inhibition (LYPLA1; lung) | inhibition (LYPLA2; heart) | inhibition (LYPLA2) | inhibition (LYPLA2; kidney) | inhibition (LYPLA2; liver) | inhibition (LYPLA2; lung)
1 | O=C(CN1CCN(C(=O)c2ccco2)CC1)Nc1cc(C(F)(F)F)ccc1Cl | 100% | 25% | 75% | 0% | 100% | 0% | 0% (inactive) | 0% | 0% | 0%
2 | COc1ccc(N2CCN(C(=O)c3cc4c(s3)-c3ccccc3S(=O)(=O)C4)CC2)cc1 | 0% | 0% (inactive) | 0% | 0% | 0% | 100% | 50% | 75% | 0% | 100%
